The target in experiment [1] is T1, Mitogen-activated protein kinase kinase kinase 5 (Homo sapiens, UniProt Q99683).
T1 sequence (Q99683 whole entry): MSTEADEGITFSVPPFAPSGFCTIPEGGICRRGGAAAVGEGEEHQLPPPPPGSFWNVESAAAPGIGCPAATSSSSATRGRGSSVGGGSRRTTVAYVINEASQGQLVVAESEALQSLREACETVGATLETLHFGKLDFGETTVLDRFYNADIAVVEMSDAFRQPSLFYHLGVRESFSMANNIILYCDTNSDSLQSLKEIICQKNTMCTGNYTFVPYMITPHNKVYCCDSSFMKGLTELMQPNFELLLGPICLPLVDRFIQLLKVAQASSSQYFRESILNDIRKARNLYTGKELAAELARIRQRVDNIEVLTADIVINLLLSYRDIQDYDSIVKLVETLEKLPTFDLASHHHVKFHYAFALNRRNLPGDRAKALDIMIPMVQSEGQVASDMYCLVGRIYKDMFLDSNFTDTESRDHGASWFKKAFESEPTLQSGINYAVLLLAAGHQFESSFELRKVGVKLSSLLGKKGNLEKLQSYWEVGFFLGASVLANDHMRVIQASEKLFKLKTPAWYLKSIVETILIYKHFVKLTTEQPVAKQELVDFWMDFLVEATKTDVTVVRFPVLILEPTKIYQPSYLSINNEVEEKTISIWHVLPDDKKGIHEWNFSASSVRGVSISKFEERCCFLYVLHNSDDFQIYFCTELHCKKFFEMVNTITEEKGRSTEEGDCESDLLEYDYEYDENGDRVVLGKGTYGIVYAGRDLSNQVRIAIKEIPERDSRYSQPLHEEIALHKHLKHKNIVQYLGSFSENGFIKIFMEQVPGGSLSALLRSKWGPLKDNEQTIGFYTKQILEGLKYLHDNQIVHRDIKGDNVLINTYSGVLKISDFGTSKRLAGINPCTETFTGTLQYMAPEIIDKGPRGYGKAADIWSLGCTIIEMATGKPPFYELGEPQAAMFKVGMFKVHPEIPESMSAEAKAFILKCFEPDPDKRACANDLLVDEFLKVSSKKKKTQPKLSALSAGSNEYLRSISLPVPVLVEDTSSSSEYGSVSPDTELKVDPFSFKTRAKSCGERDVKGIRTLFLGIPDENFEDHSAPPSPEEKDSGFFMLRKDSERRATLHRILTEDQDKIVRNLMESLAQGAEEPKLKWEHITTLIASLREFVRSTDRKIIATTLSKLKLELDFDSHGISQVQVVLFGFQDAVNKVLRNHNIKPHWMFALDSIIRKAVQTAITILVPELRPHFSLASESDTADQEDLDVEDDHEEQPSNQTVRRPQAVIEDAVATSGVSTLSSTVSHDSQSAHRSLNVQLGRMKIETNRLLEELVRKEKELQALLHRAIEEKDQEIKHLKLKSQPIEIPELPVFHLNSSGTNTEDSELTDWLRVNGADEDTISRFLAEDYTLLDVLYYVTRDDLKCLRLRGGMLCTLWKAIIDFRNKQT
The experiment in a line: Inhibition of ASK1 (unknown origin) assessed as reduction in JNK phosphorylation by cell based assay.

Experiment [2] has as its target T2, Mitogen-activated protein kinase kinase kinase 5 (Homo sapiens) (UniProt Q99683).
T2 sequence (whole entry): T1 sequence (Q99683 whole entry)
The experiment is described as follows: Inhibition of ASK1 (unknown origin) at 500 uM using biotin-MBP as substrate after 20 mins by TR-FRET assay relative to control. For orientation: Time-resolved FRET reads energy transfer from a long-lived donor to a nearby acceptor.

Experiment [3] concerns the target T1, Mitogen-activated protein kinase kinase kinase 5. The experiment is described as follows: Inhibition of ASK1 (unknown origin) using biotin-MBP as substrate after 20 mins by TR-FRET assay.
In experiment [4] the target is Cyclin-dependent kinase 2 (Homo sapiens, UniProt P24941). The experiment in a line: Inhibition of CDK2 (unknown origin).
For experiment [5], the target named is Epidermal growth factor receptor (Homo sapiens, UniProt P00533). The experiment in a line: Inhibition of recombinant human GST-tagged EGFR cytoplasmic domain (668 to 1210 residues) expressed in baculovirus expression system.
In a further experiment the target is T3, Ephrin type-A receptor 3 (Homo sapiens, UniProt P29320).
T3 sequence (P29320 whole entry): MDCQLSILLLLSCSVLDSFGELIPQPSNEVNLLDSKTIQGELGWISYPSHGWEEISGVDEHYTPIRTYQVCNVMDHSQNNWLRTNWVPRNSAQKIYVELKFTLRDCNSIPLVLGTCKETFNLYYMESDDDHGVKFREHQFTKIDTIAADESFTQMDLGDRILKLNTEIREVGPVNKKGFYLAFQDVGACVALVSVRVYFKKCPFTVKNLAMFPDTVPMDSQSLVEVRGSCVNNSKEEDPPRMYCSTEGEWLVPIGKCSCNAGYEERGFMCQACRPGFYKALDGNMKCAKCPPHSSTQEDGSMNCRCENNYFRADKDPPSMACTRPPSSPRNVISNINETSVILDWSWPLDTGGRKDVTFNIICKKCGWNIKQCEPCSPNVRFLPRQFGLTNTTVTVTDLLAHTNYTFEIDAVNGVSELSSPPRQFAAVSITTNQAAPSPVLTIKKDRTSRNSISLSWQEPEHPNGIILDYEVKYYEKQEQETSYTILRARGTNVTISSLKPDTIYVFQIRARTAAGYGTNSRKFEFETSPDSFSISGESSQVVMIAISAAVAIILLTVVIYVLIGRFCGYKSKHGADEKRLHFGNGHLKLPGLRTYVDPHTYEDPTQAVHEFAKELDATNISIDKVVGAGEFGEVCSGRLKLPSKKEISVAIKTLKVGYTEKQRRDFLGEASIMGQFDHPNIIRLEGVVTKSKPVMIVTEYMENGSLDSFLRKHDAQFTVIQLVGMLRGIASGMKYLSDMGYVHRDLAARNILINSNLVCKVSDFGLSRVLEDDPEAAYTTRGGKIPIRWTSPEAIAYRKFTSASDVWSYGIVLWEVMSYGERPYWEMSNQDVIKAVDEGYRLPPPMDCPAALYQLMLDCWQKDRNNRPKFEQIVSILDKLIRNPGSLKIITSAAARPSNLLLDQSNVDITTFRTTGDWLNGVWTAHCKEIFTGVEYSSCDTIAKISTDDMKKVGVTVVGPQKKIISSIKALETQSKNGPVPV
The experiment in a line: Inhibition of recombinant human His-tagged EPHA3 cytoplasmic domain (569 to 976 residues) expressed in baculovirus expression system.

Experiment [6] has as its target Receptor tyrosine-protein kinase erbB-4 (Homo sapiens, UniProt Q15303). The experiment is described as follows: Inhibition of recombinant human N-terminal GST-tagged ERBB4 cytoplasmic domain (708 to 993 residues) expressed in baculovirus expression system.
Experiment [7] addresses Glycogen synthase kinase-3 beta (Homo sapiens, UniProt P49841). The experiment in a line: Inhibition of recombinant full length human His-tagged GSK3B expressed in baculovirus expression system.
The target of experiment [8] is T4, Tyrosine-protein kinase ITK/TSK (Homo sapiens, UniProt Q08881).
T4 sequence (Q08881 whole entry): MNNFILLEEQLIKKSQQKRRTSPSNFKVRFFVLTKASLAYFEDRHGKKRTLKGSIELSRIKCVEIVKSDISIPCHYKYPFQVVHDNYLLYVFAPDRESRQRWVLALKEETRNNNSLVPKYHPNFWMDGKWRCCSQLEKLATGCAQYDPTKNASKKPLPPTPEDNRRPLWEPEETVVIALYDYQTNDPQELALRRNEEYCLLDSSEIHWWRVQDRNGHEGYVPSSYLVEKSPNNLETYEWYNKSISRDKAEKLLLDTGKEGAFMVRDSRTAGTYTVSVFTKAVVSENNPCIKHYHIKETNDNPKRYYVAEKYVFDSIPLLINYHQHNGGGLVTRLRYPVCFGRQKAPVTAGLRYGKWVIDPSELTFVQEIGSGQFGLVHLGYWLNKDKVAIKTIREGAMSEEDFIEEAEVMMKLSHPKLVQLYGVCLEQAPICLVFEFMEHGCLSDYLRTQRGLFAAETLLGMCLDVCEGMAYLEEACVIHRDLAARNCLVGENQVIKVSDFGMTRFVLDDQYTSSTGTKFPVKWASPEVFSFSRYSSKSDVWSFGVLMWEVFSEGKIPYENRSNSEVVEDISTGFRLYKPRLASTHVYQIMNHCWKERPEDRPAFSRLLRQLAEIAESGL
The experiment is described as follows: Inhibition of recombinant full length human GST-tagged ITK expressed in baculovirus expression system.

Experiment [9] concerns the target T5, Tyrosine-protein kinase Mer (Homo sapiens, UniProt Q12866).
T5 sequence (Q12866 whole entry): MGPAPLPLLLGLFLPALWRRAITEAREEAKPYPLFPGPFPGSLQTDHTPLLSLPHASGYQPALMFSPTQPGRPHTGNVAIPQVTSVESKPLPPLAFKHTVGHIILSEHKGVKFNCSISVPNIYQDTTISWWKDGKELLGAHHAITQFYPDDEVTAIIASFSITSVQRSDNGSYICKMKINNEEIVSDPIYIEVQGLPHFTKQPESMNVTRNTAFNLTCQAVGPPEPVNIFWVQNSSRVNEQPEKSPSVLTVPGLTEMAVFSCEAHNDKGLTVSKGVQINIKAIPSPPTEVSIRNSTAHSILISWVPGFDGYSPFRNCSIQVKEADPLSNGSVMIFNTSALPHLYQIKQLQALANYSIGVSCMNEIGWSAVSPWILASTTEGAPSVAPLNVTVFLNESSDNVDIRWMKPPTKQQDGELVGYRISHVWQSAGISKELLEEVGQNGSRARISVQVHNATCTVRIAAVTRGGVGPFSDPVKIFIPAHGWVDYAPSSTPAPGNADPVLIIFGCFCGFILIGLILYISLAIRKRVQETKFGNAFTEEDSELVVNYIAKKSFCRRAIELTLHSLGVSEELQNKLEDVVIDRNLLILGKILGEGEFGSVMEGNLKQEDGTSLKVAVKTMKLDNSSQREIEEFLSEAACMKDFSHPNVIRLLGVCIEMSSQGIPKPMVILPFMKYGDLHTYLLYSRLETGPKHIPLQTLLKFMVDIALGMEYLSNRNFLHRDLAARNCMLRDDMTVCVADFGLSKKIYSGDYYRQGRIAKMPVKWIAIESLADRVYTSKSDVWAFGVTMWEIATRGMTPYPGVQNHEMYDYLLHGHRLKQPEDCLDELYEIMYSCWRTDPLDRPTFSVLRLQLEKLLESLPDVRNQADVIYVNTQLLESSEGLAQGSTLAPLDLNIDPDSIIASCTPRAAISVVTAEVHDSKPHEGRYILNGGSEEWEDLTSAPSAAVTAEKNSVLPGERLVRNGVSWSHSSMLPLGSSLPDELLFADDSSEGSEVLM
The experiment in a line: Inhibition of recombinant human GST-tagged MER cytoplasmic domain expressed in baculovirus expression system.

For the next experiment, the target named is MAP kinase p38 (Homo sapiens, UniProt O15264+Q15759+Q16539+P53778). The experiment is described as follows: Inhibition of MAPK p38 (unknown origin).
Experiment [10] concerns the target 5'-AMP-activated protein kinase catalytic subunit alpha-1 (Homo sapiens, UniProt Q13131). The experiment in a line: Inhibition of PRKAA1 (unknown origin).
In experiment [11] the target is Proto-oncogene tyrosine-protein kinase receptor Ret (Homo sapiens, UniProt P07949). The experiment is described as follows: Inhibition of recombinant human GST-tagged RET cytoplasmic domain expressed in baculovirus expression system.
For experiment [12], the target named is Rho-associated protein kinase 1 (Homo sapiens, UniProt Q13464). The experiment is described as follows: Inhibition of recombinant human GST-tagged ROCK1 catalytic domain expressed in baculovirus expression system.
Experiment [13] addresses Macrophage-stimulating protein receptor (Homo sapiens, UniProt Q04912). The experiment is described as follows: Inhibition of recombinant human GST-tagged RON cytoplasmic domain expressed in baculovirus expression system.

Sequence of Receptor tyrosine-protein kinase erbB-4 (Q15303 whole entry, the tested form may be a part): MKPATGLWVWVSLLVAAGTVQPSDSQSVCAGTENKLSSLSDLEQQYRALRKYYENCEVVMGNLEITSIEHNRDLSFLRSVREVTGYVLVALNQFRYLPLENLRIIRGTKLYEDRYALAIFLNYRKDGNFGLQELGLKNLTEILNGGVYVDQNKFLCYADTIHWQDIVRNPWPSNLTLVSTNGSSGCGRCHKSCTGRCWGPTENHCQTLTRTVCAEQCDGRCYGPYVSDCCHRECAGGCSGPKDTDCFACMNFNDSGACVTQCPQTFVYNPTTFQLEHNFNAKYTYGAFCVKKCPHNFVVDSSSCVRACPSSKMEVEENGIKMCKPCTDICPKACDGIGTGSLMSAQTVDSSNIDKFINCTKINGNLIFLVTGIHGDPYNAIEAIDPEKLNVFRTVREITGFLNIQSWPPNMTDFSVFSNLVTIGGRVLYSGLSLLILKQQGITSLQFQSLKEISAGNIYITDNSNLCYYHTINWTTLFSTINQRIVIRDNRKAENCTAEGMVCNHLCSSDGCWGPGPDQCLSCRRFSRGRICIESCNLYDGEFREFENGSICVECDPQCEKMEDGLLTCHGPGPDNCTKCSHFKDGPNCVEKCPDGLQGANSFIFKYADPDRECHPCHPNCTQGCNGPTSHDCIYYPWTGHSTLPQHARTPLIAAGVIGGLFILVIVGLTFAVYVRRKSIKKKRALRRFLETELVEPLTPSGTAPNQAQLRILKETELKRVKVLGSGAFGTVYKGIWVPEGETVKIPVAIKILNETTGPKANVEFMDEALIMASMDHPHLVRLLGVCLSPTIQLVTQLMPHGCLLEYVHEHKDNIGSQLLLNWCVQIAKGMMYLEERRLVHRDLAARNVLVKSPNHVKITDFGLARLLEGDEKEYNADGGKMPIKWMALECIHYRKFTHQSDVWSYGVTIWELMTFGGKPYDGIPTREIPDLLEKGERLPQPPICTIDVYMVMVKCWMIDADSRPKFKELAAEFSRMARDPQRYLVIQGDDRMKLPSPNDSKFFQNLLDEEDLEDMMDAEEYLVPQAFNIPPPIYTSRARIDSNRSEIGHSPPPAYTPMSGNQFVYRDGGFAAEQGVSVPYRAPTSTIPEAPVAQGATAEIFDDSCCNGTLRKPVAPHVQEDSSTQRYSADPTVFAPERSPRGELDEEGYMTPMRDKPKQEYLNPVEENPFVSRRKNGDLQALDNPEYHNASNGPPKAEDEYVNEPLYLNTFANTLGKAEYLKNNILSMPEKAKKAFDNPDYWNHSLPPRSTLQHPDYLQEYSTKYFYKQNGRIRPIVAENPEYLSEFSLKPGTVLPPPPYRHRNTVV
Sequence of Proto-oncogene tyrosine-protein kinase receptor Ret (P07949 whole entry, the tested form may be a part): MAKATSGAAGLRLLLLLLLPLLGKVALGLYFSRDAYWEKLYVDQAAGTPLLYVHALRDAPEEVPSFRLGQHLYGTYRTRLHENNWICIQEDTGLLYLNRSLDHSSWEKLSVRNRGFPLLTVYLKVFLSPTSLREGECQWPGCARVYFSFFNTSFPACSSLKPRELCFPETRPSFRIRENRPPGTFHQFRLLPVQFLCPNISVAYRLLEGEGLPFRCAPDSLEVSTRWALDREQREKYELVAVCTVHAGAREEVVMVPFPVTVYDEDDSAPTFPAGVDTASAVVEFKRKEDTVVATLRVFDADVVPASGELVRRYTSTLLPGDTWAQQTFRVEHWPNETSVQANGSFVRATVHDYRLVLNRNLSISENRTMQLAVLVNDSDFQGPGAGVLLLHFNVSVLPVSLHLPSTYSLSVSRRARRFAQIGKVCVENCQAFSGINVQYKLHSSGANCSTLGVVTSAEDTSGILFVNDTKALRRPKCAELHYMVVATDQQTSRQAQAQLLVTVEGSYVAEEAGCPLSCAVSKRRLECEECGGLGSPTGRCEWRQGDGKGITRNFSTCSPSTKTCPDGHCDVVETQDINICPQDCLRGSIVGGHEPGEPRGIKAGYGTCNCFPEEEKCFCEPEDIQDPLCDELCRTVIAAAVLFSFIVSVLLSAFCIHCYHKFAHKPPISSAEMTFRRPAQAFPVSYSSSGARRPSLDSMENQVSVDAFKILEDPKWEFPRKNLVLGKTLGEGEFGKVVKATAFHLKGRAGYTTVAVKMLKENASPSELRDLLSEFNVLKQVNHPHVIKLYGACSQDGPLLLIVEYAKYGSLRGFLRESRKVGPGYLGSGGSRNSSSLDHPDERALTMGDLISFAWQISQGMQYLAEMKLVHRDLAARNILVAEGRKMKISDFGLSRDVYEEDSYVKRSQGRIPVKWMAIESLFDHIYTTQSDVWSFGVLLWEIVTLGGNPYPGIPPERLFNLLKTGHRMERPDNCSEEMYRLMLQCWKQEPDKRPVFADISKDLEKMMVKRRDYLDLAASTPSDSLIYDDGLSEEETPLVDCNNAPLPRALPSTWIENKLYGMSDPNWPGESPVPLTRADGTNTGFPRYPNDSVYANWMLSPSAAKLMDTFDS
Sequence of Epidermal growth factor receptor (P00533 whole entry, the tested form may be a part): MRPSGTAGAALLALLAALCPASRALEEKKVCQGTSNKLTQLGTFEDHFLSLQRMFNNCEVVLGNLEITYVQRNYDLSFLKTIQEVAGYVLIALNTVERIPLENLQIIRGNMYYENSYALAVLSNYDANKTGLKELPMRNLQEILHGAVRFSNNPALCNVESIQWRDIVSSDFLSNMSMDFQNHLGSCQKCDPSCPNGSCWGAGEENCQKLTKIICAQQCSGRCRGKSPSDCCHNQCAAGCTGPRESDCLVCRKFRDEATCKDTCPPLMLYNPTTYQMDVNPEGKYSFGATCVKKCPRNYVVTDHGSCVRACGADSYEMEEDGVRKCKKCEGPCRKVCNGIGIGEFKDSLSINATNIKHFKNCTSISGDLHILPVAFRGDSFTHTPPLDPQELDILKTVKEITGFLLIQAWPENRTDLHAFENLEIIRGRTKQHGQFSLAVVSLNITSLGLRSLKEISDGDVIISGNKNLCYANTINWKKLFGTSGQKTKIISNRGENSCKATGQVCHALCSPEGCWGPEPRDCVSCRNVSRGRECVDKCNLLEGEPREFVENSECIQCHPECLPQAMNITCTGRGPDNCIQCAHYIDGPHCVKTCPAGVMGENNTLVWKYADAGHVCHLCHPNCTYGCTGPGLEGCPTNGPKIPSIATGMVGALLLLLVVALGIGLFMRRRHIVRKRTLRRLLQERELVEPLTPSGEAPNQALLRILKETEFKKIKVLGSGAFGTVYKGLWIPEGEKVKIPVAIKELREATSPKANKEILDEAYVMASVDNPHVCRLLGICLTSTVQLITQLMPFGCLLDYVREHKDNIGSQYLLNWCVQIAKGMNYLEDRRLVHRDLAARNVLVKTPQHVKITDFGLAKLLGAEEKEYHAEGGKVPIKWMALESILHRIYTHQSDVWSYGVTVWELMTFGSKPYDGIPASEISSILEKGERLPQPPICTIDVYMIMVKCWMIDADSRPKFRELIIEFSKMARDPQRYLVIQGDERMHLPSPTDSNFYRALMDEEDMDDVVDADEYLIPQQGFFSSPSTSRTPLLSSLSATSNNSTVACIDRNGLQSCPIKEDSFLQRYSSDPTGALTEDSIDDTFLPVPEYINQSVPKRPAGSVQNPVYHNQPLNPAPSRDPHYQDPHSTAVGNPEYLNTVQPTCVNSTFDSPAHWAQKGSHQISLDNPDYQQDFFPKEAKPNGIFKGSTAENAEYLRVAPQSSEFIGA
Sequence of 5'-AMP-activated protein kinase catalytic subunit alpha-1 (Q13131 whole entry, the tested form may be a part): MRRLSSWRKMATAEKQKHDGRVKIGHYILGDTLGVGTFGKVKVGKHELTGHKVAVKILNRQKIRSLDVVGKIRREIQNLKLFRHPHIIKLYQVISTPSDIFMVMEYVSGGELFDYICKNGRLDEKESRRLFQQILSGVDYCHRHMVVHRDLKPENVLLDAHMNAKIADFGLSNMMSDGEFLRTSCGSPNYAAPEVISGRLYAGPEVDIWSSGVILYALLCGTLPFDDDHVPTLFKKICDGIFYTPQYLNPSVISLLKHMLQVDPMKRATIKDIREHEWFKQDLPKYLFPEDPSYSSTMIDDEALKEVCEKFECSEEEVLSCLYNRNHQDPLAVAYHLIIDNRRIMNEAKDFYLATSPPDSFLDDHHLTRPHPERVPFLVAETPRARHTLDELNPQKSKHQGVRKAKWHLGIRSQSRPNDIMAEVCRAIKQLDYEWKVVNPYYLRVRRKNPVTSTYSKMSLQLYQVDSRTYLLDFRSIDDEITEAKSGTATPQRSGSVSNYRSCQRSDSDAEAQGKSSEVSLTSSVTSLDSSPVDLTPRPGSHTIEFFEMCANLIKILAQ
Sequence of Glycogen synthase kinase-3 beta (P49841 whole entry): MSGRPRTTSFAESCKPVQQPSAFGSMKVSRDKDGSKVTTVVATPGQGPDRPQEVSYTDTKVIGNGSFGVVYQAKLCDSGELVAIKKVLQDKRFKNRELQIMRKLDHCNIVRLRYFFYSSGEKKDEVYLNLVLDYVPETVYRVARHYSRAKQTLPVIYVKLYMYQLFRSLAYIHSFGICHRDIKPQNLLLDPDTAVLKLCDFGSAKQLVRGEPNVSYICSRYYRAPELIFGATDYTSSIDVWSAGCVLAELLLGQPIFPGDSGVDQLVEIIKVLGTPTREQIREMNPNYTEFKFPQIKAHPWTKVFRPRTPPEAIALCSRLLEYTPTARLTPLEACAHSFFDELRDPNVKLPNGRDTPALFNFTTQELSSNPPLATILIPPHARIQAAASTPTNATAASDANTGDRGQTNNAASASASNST

Usually EC50 stands for the concentration giving half of the maximal effect. As for `CC(C)n1cnnc1-c1nc(C(=O)Nc2cnn(C3COC3)c2)cs1`, the concentration for a half-maximal effect (EC50) in [1] was determined as 130 nM.

What is called inhibition is the drop in the measured response relative to a control, in per cent. The low end stands for a response near the control, the high end for a response far below the control. The compound `CCn1cnc(NC(=O)c2ccccc2)c1` yielded an inhibition in experiment [2] of 40%.

Turning to `COCCOc1ccnc(NC(=O)c2csc(-c3nncn3C(C)C)n2)c1`, in experiment [1], the concentration giving a half-maximal response (EC50) came out at 140 nM.

The IC50 is the concentration that gives 50% inhibition. For the compound `CCn1cc(NC(=O)c2csc(-c3nncn3C(C)C)n2)cn1`, in experiment [1], the EC50 was 600 nM. In [3], this compound showed an IC50 of 600 nM.

Regarding `CC(C)n1cnnc1-c1nc(C(=O)Nc2ccccn2)cs1`, half-maximal inhibition in experiment [3] (IC50) was put at 400 nM.

Consider `CCn1cnc(NC(=O)c2cscn2)c1`, for which the concentration for half-maximal inhibition (IC50) in [3] came out at 100000 nM. Moreover, in experiment [2], the inhibition is 75%.

By pIC50 is commonly meant the negative decadic logarithm of the IC50, by convention in mol/L. A higher pIC50 goes with a low IC50. In the case of `CC(C)(C)c1ccc(C(=O)Nc2cn3cc(-n4ccnc4)ccc3n2)cc1`, the half-inhibitory concentration (IC50) was 155 nM in [4]; greater than 20000 nM in [5]; greater than 20000 nM at Ephrin type-A receptor 3; greater than 20000 nM in [6]; 832 nM in experiment [7]; 5500 nM in [8]. The IC50 in experiment [9] is 6460 nM; in experiment [10], 13800 nM; in experiment [11] it was 11500 nM; in experiment [12] it was 4900 nM; in [13], greater than 20000 nM. The negative logarithm of the IC50 (pIC50) at MAP kinase p38 was less than 4.7.

`COCCNc1ccnc(NC(=O)c2csc(-c3nncn3C(C)C)n2)c1`: the EC50 in [1] is 99 nM.

The compound `CCn1cnc(NC(=O)c2ccoc2)c1` came in with an IC50 in experiment [3] of 500000 nM. For the same compound, the inhibition in experiment [2] is 51%.

In the case of `Cc1ccc(C(=O)Nc2cccc(-c3nncn3C(C)C)n2)c(F)c1`, in experiment [3], it took 55 nM to reach half-maximal inhibition (IC50).

Consider `Cc1cc(F)c(C(=O)Nc2ccccn2)cc1-n1cnc(C2CC2)c1`, for which the midpoint of inhibition in [3], the IC50, lay at 6000 nM.

In turn, `CCn1cnc(NC(=O)c2ccco2)c1` displayed an inhibition in [2] of 35%.

Consider `COCCCn1cc(NC(=O)c2csc(-c3nncn3C(C)C)n2)cn1`, for which the EC50 in experiment [1] was 65 nM.

Compound `CCn1cnc(NC(=O)C2CCC2)c1` displayed an inhibition in experiment [2] of less than 10%.

The values above are taken from ChEMBL document CHEMBL4007491, “Structure-based drug design of novel ASK1 inhibitors using an integrated lead optimization strategy” (Bioorg Med Chem Lett, 2017).
